Values joined by “and” are separate entries in the source; they are usually repeats but may differ in a detail not shown here. Equal values may be shown once. Toxic doses and inconclusive results are not listed.
System: P388 leukemia ip, CD2F1 mice, survival T/C
Assay: NCI In Vivo Anticancer Drug Screen. Data for tumor model P388 Leukemia (intraperitoneal) in CD2F1 (CDF1) mice
Settings: endpoint: median survival time, higher = longer survival
How it was run: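 Mice carrying the transplanted tumor received test compound or vehicle. Survival was recorded in each group, and the value is the treated-group measurement divided by that of the vehicle-treated control group.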

[1] = dose: 50.0 mg/kg/injection, schedule: Q01DX005 (ip), vehicle: saline with Tween-80
[2] = dose: 100.0 mg/kg/injection, schedule: Q01DX005 (ip), vehicle: saline with Tween-80
[3] = dose: 200.0 mg/kg/injection, schedule: Q01DX005 (ip), vehicle: saline with Tween-80
[4] = dose: 25.0 mg/kg/injection, schedule: Q01DX005 (ip), vehicle: Klucel (hydroxypropylcellulose) (HPC)
[5] = dose: 50.0 mg/kg/injection, schedule: Q01DX005 (ip), vehicle: Klucel (hydroxypropylcellulose) (HPC)
[6] = dose: 100.0 mg/kg/injection, schedule: Q01DX005 (ip), vehicle: Klucel (hydroxypropylcellulose) (HPC)
[7] = dose: 200.0 mg/kg/injection, schedule: Q01DX005 (ip), vehicle: Klucel (hydroxypropylcellulose) (HPC)
[8] = dose: 60.0 mg/kg/injection, schedule: Q01DX005 (ip), vehicle: saline with Tween-80
[9] = dose: 120.0 mg/kg/injection, schedule: Q01DX005 (ip), vehicle: saline with Tween-80
[10] = dose: 240.0 mg/kg/injection, schedule: Q01DX005 (ip), vehicle: saline with Tween-80
[11] = dose: 50.0 mg/kg/injection, schedule: Q01DX009 (ip), vehicle: Klucel (hydroxypropylcellulose) (HPC)
[12] = dose: 100.0 mg/kg/injection, schedule: Q01DX009 (ip), vehicle: Klucel (hydroxypropylcellulose) (HPC)
[13] = dose: 50.0 mg/kg/injection, schedule: Q01DX009 (ip), vehicle: saline with Tween-80
[14] = dose: 100.0 mg/kg/injection, schedule: Q01DX009 (ip), vehicle: saline with Tween-80
[15] = dose: 200.0 mg/kg/injection, schedule: Q01DX009 (ip), vehicle: saline with Tween-80
[16] = dose: 100.0 mg/kg/injection, schedule: Q04DX002 (ip), vehicle: saline with Tween-80
[17] = dose: 200.0 mg/kg/injection, schedule: Q01DX009 (ip), vehicle: Klucel (hydroxypropylcellulose) (HPC)
[18] = dose: 100.0 mg/kg/injection, schedule: Q04DX003 (ip), vehicle: saline
[19] = dose: 200.0 mg/kg/injection, schedule: Q04DX003 (ip), vehicle: saline
[20] = dose: 50.0 mg/kg/injection, schedule: Q01DX009 (ip), vehicle: saline
[21] = dose: 100.0 mg/kg/injection, schedule: Q01DX009 (ip), vehicle: saline
[22] = dose: 200.0 mg/kg/injection, schedule: Q01DX009 (ip), vehicle: saline

CCOC(=O)CNC(=O)NN(c1ccccc1)C1CCS(=O)(=O)C1 (configuration not stated)
T/C [1]: 100 % of control | T/C [2]: 90 % of control | T/C [3]: 94 % of control

Cc1cc2ccccc2nc1C#N
T/C [4]: 105 % of control | T/C [5]: 102 % of control | T/C [6]: 101 % of control | T/C [7]: 109 % of control

CCC1SC(=S)NC1=O (configuration not stated)
T/C [1]: 92 % of control | T/C [2]: 92 % of control

CC1(C)Cc2[nH]c3ccccc3c(=O)c2-c2nc3ccccc3c(=O)n21
T/C (dose: 12.5 mg/kg/injection, schedule: Q01DX005 (ip), vehicle: Klucel (hydroxypropylcellulose) (HPC)): 98 % of control | T/C [4]: 88 % of control | T/C [5]: 90 % of control | T/C [6]: 98 % of control | T/C [7]: 116 % of control

Cc1ccc(S(=O)(=O)C(CCS(C)(=O)=O)C(=O)c2ccccc2)cc1 (configuration not stated)
T/C [8]: 100 % of control and 93 % of control | T/C [9]: 92 % of control | T/C [10]: 88 % of control and 90 % of control and 91 % of control

COc1cc2cccc(OC)c(=O)c2c(OC)c1OC
T/C [5]: 92 % of control | T/C [6]: 100 % of control | T/C [7]: 90 % of control

c1ccc2c(CNC3CCCCC3)c[nH]c2c1
T/C (dose: 25.0 mg/kg/injection, schedule: Q01DX009 (ip), vehicle: Klucel (hydroxypropylcellulose) (HPC)): 109 % of control | T/C [11]: 98 % of control | T/C [12]: 96 % of control

Cc1c(C)c2c(c(C)c1OP(=O)(N1CC1)N1CC1)CCC(C)(CCCC(C)CCCC(C)CCCC(C)C)O2 (configuration not stated)
T/C [13]: 105 % of control | T/C [14]: 105 % of control | T/C [15]: 102 % of control

N#Cc1c(NCc2ccccc2)nc2c3ccccc3ccn2c1=O
T/C (dose: 25.0 mg/kg/injection, schedule: Q04DX002 (ip), vehicle: saline with Tween-80): 95 % of control | T/C (dose: 50.0 mg/kg/injection, schedule: Q04DX002 (ip), vehicle: saline with Tween-80): 97 % of control | T/C [16]: 95 % of control

Oc1c(C(c2ccccc2)N2CCCCC2)ccc2ccccc12 (configuration not stated)
T/C [13]: 110 % of control | T/C [14]: 105 % of control | T/C [15]: 90 % of control

CCOC(=O)c1c(C)cc2ccccn12
T/C [8]: 103 % of control | T/C [9]: 103 % of control | T/C [10]: 105 % of control

O=C(CCCc1ccccc1)N1CCOCC1
T/C (dose: 50.0 mg/kg/injection, schedule: Q01DX001 (ip), vehicle: saline sonified): 90 % of control | T/C (dose: 100.0 mg/kg/injection, schedule: Q01DX001 (ip), vehicle: saline sonified): 109 % of control | T/C (dose: 200.0 mg/kg/injection, schedule: Q01DX001 (ip), vehicle: saline sonified): 100 % of control

CCN(CC)C1=CC(=O)OC1OC (configuration not stated)
T/C (dose: 60.0 mg/kg/injection, schedule: Q01DX005 (ip), vehicle: saline): 95 % of control | T/C (dose: 120.0 mg/kg/injection, schedule: Q01DX005 (ip), vehicle: saline): 94 % of control

N=C(/C(=C/c1cccc2ccccc12)c1ccccc1)c1ccccc1
T/C [11]: 98 % of control | T/C [12]: 104 % of control | T/C [17]: 108 % of control

CN(C)C1=Nc2ccccc2NC(=O)C1
T/C [5]: 105 % of control | T/C [6]: 105 % of control | T/C [7]: 105 % of control

CC1=C(CC/C(C)=C/CC[C@@]2(C)CC[C@H](C(C)C(=O)O)OO2)C(C)(C)CCC1 (some centres not stated)
T/C (dose: 4.38 mg/kg/injection, schedule: Q01DX005 (ip), vehicle: saline + Tween-80 + alcohol): 97 % of control | T/C (dose: 8.75 mg/kg/injection, schedule: Q01DX005 (ip), vehicle: saline + Tween-80 + alcohol): 102 % of control | T/C (dose: 17.5 mg/kg/injection, schedule: Q01DX005 (ip), vehicle: saline + Tween-80 + alcohol): 94 % of control | T/C (dose: 35.0 mg/kg/injection, schedule: Q01DX005 (ip), vehicle: saline + Tween-80 + alcohol): 94 % of control

Cc1c(COC(=O)NC(C)C)c(COC(=O)NC(C)C)c2n1CSC2
T/C (dose: 6.25 mg/kg/injection, schedule: Q01DX005 (ip), vehicle: Klucel + Tween-80): 154 % of control | T/C (dose: 25.0 mg/kg/injection, schedule: Q01DX005 (ip), vehicle: Klucel + Tween-80): 169 % of control and 173 % of control

CC1CCOC(C)O1 (configuration not stated)
T/C [18]: 100 % of control | T/C [19]: 104 % of control | T/C (dose: 400.0 mg/kg/injection, schedule: Q04DX003 (ip), vehicle: saline): 101 % of control

CCCCOP(O)(=S)OCCCC.[Y]
T/C (dose: 25.0 mg/kg/injection, schedule: Q01DX009 (ip), vehicle: saline + alcohol): 98 % of control | T/C (dose: 50.0 mg/kg/injection, schedule: Q01DX009 (ip), vehicle: saline + alcohol): 99 % of control | T/C (dose: 100.0 mg/kg/injection, schedule: Q01DX009 (ip), vehicle: saline + alcohol): 98 % of control | T/C [16]: 102 % of control | T/C (dose: 200.0 mg/kg/injection, schedule: Q01DX009 (ip), vehicle: saline + alcohol): 91 % of control | T/C (dose: 200.0 mg/kg/injection, schedule: Q04DX002 (ip), vehicle: saline with Tween-80): 96 % of control | T/C (dose: 400.0 mg/kg/injection, schedule: Q04DX002 (ip), vehicle: saline with Tween-80): 96 % of control

N#CC(=Nc1ccccc1)c1cccc(Br)c1
T/C [11]: 109 % of control | T/C [12]: 109 % of control | T/C [17]: 117 % of control

O=c1c2ccccc2[nH]c2cc([N+](=O)[O-])cc([N+](=O)[O-])c12
T/C [1]: 90 % of control | T/C [2]: 90 % of control | T/C [3]: 98 % of control

COC(=O)C(Cc1c[nH]c2ccccc12)NC(=O)C(CCCCN)N(C(=O)OCc1ccccc1)C(=O)OCc1ccccc1 (configuration not stated)
T/C [1]: 92 % of control | T/C [2]: 91 % of control | T/C [3]: 86 % of control

CC(CN1CCCCC1)NC(=O)c1scnc1-c1ccccc1 (configuration not stated)
T/C [8]: 116 % of control | T/C [9]: 98 % of control

N/C(=N\O)c1nc2c(N)nc(-c3ccccc3)nc2nc1N
T/C (dose: 37.5 mg/kg/injection, schedule: Q01DX009 (ip), vehicle: saline with Tween-80): 109 % of control | T/C (dose: 75.0 mg/kg/injection, schedule: Q01DX009 (ip), vehicle: saline with Tween-80): 95 % of control | T/C (dose: 150.0 mg/kg/injection, schedule: Q01DX009 (ip), vehicle: saline with Tween-80): 97 % of control

Cc1nc(-c2ccc(Cl)cc2)c(Cc2c(O)ccc3ccccc23)c(=O)[nH]1
T/C [20]: 102 % of control | T/C [21]: 102 % of control | T/C [22]: 102 % of control

CC1=CNC(=O)CC(C)(C)C1
T/C [1]: 105 % of control | T/C [2]: 105 % of control | T/C [3]: 104 % of control

O=C1OCC2C3C=CC(O3)C12 (configuration not stated)
T/C [18]: 100 % of control | T/C [19]: 102 % of control

COc1cc(-c2nc(SC)n[nH]2)cc(OC)c1OC
T/C [5]: 95 % of control | T/C [6]: 104 % of control | T/C [7]: 88 % of control

C/C=C1\CN2CCC34c5ccccc5N(C)C35OCC4(C(=O)OC)C1CC25 (configuration not stated)
T/C (dose: 5.25 mg/kg/injection, schedule: Q01DX005 (ip), vehicle: saline + Tween-80 + alcohol): 100 % of control | T/C (dose: 10.5 mg/kg/injection, schedule: Q01DX005 (ip), vehicle: saline + Tween-80 + alcohol): 92 % of control | T/C (dose: 21.0 mg/kg/injection, schedule: Q01DX005 (ip), vehicle: saline + Tween-80 + alcohol): 98 % of control | T/C (dose: 42.0 mg/kg/injection, schedule: Q01DX005 (ip), vehicle: saline + Tween-80 + alcohol): 96 % of control

CN(c1ccccc1)S(=O)c1ccccc1 (configuration not stated)
T/C (dose: 25.0 mg/kg/injection, schedule: Q01DX009 (ip), vehicle: saline with Tween-80): 94 % of control | T/C [13]: 103 % of control | T/C [14]: 110 % of control

Oc1ccc(Cl)cc1CN1CCN(Cc2cc(Cl)ccc2O)CC1
T/C (dose: 15.0 mg/kg/injection, schedule: Q01DX005 (ip), vehicle: saline with Tween-80): 100 % of control | T/C (dose: 30.0 mg/kg/injection, schedule: Q01DX005 (ip), vehicle: saline with Tween-80): 97 % of control | T/C [8]: 89 % of control

CC1CN=C(NS(=O)(=O)c2ccccc2)N1 (configuration not stated)
T/C [20]: 101 % of control | T/C [21]: 93 % of control | T/C [22]: 92 % of control

Cc1nc2ccccc2c(=O)n1/N=C/c1ccc(Cl)cc1Cl
T/C [1]: 92 % of control | T/C [2]: 100 % of control

From PubChem BioAssay AID330 (DTP/NCI, 2004)
